How the values were obtained:
[1] = biological target: T1, Heat shock protein HSP90 (Homo sapiens) (UniProt P07900+P08238); experiment: Inhibition of HSP90 in human MCF7 cells assessed as cell cycle arrest by measuring accumulation at S phase at 5 uM measured after 24 hrs by RNaseA/propidium iodide staining based flow cytometric analysis (reference value: 7.08 %); set-up: scale not given: the % may be the effect or the level left
[2] = biological target: T1, Heat shock protein HSP90 (Homo sapiens); experiment: Inhibition of HSP90 in human MCF7 cells assessed as induction of apoptosis by measuring total apoptotic and dead cell population at 0.5 uM measured after 24 hrs by annexinV-FITC/propidium iodide staining based flow cytometry (reference value: 9.23 %); set-up: scale not given: the % may be the effect or the level left
[3] = biological target: T1, Heat shock protein HSP90 (Homo sapiens); experiment: Inhibition of HSP90 in human MCF7 cells assessed as induction of apoptosis by measuring early apototic cells at 5 uM measured after 24 hrs by annexinV-FITC/propidium iodide staining based flow cytometry (reference value: 1.31 %); type: cell-based; set-up: scale not given: the % may be the effect or the level left
[4] = biological target: T1, Heat shock protein HSP90 (Homo sapiens); experiment: Inhibition of HSP90 in human MCF7 cells assessed as induction of nuclear morphological changes by measuring horse shoe shaped nuclei formation at 2.5 to 10 uM by DAPI staining based fluorescence microscopy analysis; type: cell-based; conditions: dose microM 2.5-10
[5] = biological target: T1, Heat shock protein HSP90 (Homo sapiens); experiment: Inhibition of HSP90 in human MCF7 cells assessed as induction of apoptosis by measuring late apototic cells at 10 uM measured after 24 hrs by annexinV-FITC/propidium iodide staining based flow cytometry (reference value: 7.91 %); type: cell-based; set-up: scale not given: the % may be the effect or the level left
[6] = biological target: T1, Heat shock protein HSP90 (Homo sapiens); experiment: Inhibition of HSP90 in human MCF7 cells assessed as induction of apoptosis by measuring necrotic cells at 5 uM measured after 24 hrs by annexinV-FITC/propidium iodide staining based flow cytometry (reference value: 0.01 %); type: cell-based; set-up: scale not given: the % may be the effect or the level left
[7] = biological target: T1, Heat shock protein HSP90 (Homo sapiens); experiment: Inhibition of HSP90 in human MCF7 cells assessed as induction of morphological changes by measuring membrane blebbing at 2.5 to 10 uM by acridine orange/ethidium bromide staining based fluorescence microscopy analysis; type: cell-based; conditions: dose microM 2.5-10
[8] = biological target: T1, Heat shock protein HSP90 (Homo sapiens); experiment: Inhibition of HSP90 in human MCF7 cells assessed as cell cycle arrest by measuring accumulation at G0/G1 phase at 5 uM measured after 24 hrs by RNaseA/propidium iodide staining based flow cytometric analysis (reference value: 39.10 %); set-up: scale not given: the % may be the effect or the level left
[9] = biological target: T1, Heat shock protein HSP90 (Homo sapiens); experiment: Inhibition of HSP90 in human MCF7 cells assessed as cell cycle arrest by measuring accumulation at G2/M phase at 2.5 uM measured after 24 hrs by RNaseA/propidium iodide staining based flow cytometric analysis (reference value: 25.08 %); set-up: scale not given: the % may be the effect or the level left
[10] = biological target: T1, Heat shock protein HSP90 (Homo sapiens); experiment: Inhibition of HSP90 in human MCF7 cells assessed as cell cycle arrest by measuring accumulation at G2/M phase at 5 uM measured after 24 hrs by RNaseA/propidium iodide staining based flow cytometric analysis (reference value: 25.08 %); set-up: scale not given: the % may be the effect or the level left
[11] = biological target: T1, Heat shock protein HSP90 (Homo sapiens); experiment: Inhibition of HSP90 in human MCF7 cells assessed as induction of morphological changes by measuring chromatin condensation and fragmentation in nucleus at 2.5 to 10 uM by acridine orange/ethidium bromide staining based fluorescence microscopy analysis; type: cell-based; conditions: dose microM 2.5-10
[12] = biological target: T1, Heat shock protein HSP90 (Homo sapiens); experiment: Inhibition of HSP90 in human MCF7 cells assessed as induction of apoptosis by measuring total apoptotic and dead cell population at 4 uM measured after 24 hrs by annexinV-FITC/propidium iodide staining based flow cytometry (reference value: 9.23 %); set-up: scale not given: the % may be the effect or the level left
[13] = biological target: T1, Heat shock protein HSP90 (Homo sapiens); experiment: Inhibition of HSP90 in human MCF7 cells assessed as induction of mitochondrial membrane potential loss by measuring cell population with intact mitochondrial membrane potential at 2.5 uM after 24 hrs by JC1 staining-based flow cytometry analysis (reference value: 92.39 %); set-up: scale not given: the % may be the effect or the level left
[14] = biological target: T1, Heat shock protein HSP90 (Homo sapiens); experiment: Inhibition of HSP90 in human MCF7 cells assessed as cell cycle arrest by measuring accumulation at Sub-G1 phase at 5 uM measured after 24 hrs by RNaseA/propidium iodide staining based flow cytometric analysis (reference value: 3.75 %); set-up: scale not given: the % may be the effect or the level left
[15] = biological target: T1, Heat shock protein HSP90 (Homo sapiens); experiment: Inhibition of HSP90 in human MCF7 cells assessed as cell cycle arrest by measuring accumulation at G0/G1 phase at 2.5 uM measured after 24 hrs by RNaseA/propidium iodide staining based flow cytometric analysis (reference value: 39.10 %); set-up: scale not given: the % may be the effect or the level left
[16] = biological target: T1, Heat shock protein HSP90 (Homo sapiens); experiment: Inhibition of HSP90 in human MCF7 cells assessed as cell cycle arrest by measuring accumulation at S phase at 10 uM measured after 24 hrs by RNaseA/propidium iodide staining based flow cytometric analysis (reference value: 7.08 %); set-up: scale not given: the % may be the effect or the level left
[17] = biological target: T1, Heat shock protein HSP90 (Homo sapiens); experiment: Inhibition of HSP90 in human MCF7 cells assessed as induction of mitochondrial membrane potential loss by measuring cell population with intact mitochondrial membrane potential at 5 uM after 24 hrs by JC1 staining-based flow cytometry analysis (reference value: 92.39 %); set-up: scale not given: the % may be the effect or the level left
[18] = biological target: T1, Heat shock protein HSP90 (Homo sapiens); experiment: Inhibition of HSP90 in human MCF7 cells assessed as induction of morphological changes by measuring apoptotic body formation at 2.5 to 10 uM by acridine orange/ethidium bromide staining based fluorescence microscopy analysis; type: cell-based; conditions: dose microM 2.5-10
[19] = biological target: T1, Heat shock protein HSP90 (Homo sapiens); experiment: Inhibition of HSP90 in human MCF7 cells assessed as induction of apoptosis by measuring live cells at 5 uM measured after 24 hrs by annexinV-FITC/propidium iodide staining based flow cytometry (reference value: 90.77 %); type: cell-based; set-up: scale not given: the % may be the effect or the level left
[20] = biological target: T1, Heat shock protein HSP90 (Homo sapiens); experiment: Inhibition of HSP90 in human MCF7 cells assessed as increase in ROS generation by measuring fluorescence intensity at 2.5 to 10 uM after 24 hrs by DCFDA staining based flow cytometry; type: cell-based; conditions: dose microM 2.5-10, time 24.0 hrs

Activity [1]: 5.15%
Activity [2]: 12.1%
Activity [3]: 3.8%
inhibition [4]: Dose-dependent effect
Activity [5]: 30.5%
inhibition [7]: Dose-dependent effect
Activity [8]: 28%
Activity [9]: 27.2%
Activity [10]: 23%
inhibition [11]: Dose-dependent effect
Activity [12]: 34.7%
Activity [13]: 85.4%
Activity [14]: 16.7%
Activity [15]: 35.2%
Activity [16]: 4.13%
Activity [17]: 75.3%
inhibition [18]: Dose-dependent effect
Activity [19]: 77.4%
inhibition [20]: Dose-dependent effect
Structure (SMILES): Nc1nc(-c2ccc(Br)cc2)cc(-c2cn(-c3ccc(Cl)cc3)nc2-c2ccc([N+](=O)[O-])cc2)n1
Activity [6]: 0.17%
